Tested on: 616215-338-R-J1-PDC complex spheroids, viability % test/control
Assay: Anticancer human tumor 616215-338-R-J1-PDC patient-derived colon adenocarcinoma cell line growth inhibition [CLK]
Settings: for IC50: curve of first compound; for viability, T/C: stronger effect = lower value
Source text: A high-throughput screen of multi-cell type tumor spheroids was designed to identify active combinations of […] and targeted small molecules. Complex spheroids include a stromal component modeled by human endothelial cells (HUVEC) and fibroblasts modeled by human mesenchymal stem cells (MSCs). The concentration ranges selected for each drug and investigational agent were based upon clinically achievable concentrations if the clinical Cmax of the agent was known.
Compounds. The drugs and investigational agents: cirtuvivint (SM08502; NSC835563), CC-671 (NSC850746), vemurafenib (NSC761431), tapotoclax (NSC804041), sotorasib (NSC818433), adagrasib (NSC831453), MRTX-1133 (NSC836407), BAY2416964 (NSC825713), copanlisib (NSC816437), inavolisib (NSC800729), abemaciclib (NSC768073), osimertinib (NSC779217), entinostat (NSC756642), eltanexor (KPT-8602, NSC794443), venetoclax (NSC766270), ceralasertib (NSC777638), bortezomib (NSC756655), olaparib (NSC753686), talazoparib (NSC767125), alisertib (NSC759677), peposertib (NSC802822), gemcitabine (NSC613327), 5-fluorouracil (NSC19893), SN-38 (NSC673596), oxaliplatin (NSC266046), paclitaxel (NSC125973), and doxorubicin (NSC123127), were obtained from the National Cancer Institute (NCI) Developmental Therapeutics Program Chemical Repository. The FDA-approved anticancer drug set is available from the Developmental Therapeutics Program at https://dtp.cancer.gov/organization/dscb/obtaining/available plates.htm. […] The stock solutions were prepared in dimethyl sulfoxide (DMSO, Sigma-Aldrich, St. Louis, MO, cat. D2650), except for the platinum complexes which were prepared in saline (Quality Biological, Gaithersburg, MD, cat. 114-055-101), at 800-fold the tested concentration and stored at -70 degrees C prior to their use. All drugs and investigational agents were tested over a range starting from a high concentration at or near the clinical Cmax and decreasing in half-log increments. If the clinical Cmax for an agent had not been determined, the highest concentration tested was 10 microM.
Cell Culture. All cells were maintained in an incubator at 37 degrees C and 5% CO2 with 95% humidity. The PDC lines were cultured according to standard operating procedures established by the NCI PDMR. Briefly, all PDCs were thawed and cultured in Matrigel-coated flasks prepared with a working solution of 1X Ham's F-12 nutrient mix, without supplementation (Invitrogen, Waltham, MA, cat. 11765054), 100 U/mL penicillin-streptomycin (Invitrogen, cat. 15140122), and 2.5% Matrigel (Corning Inc., Corning, NY, cat. 354248) for the first three passages. The 947758-054-R-J2-PDC line was cultured in 6B/Colon 1A media, which includes advanced DMEM/F-12 (Thermo Fisher Scientific, cat. 12634028), 10 mM HEPES (Thermo Fisher Scientific, cat. 15630080), 1X GlutaMAX supplement (Thermo Fisher Scientific, cat. 35050061), 0.1 mg/mL primocin (InvivoGen, cat. ant-pm-2), 10% defined fetal bovine serum, heat inactivated (HyClone Laboratories Inc., cat. SH30070.03HI), 1.25 mM N-Acetyl-L-cysteine (Sigma-Aldrich, cat. A9165), 10 mM nicotinamide (Sigma-Aldrich, cat. N0636), 1X B-27 supplement (Thermo Fisher Scientific, cat. 17504044), 1X N-2 supplement (Thermo Fisher Scientific, cat. 17502048), and 10 microM Y-27632 dihydrochloride (Tocris Bioscience, cat. 1254). The 876862-298-R-J1-PDC was cultured in 6E media, which includes all 6B/Colon 1A media components plus 50% L-WRN conditioned media (ATCC, cat. CRL-3276), 50 ng/mL recombinant human EGF recombinant protein (hEGF; Thermo Fisher Scientific, cat. PHG0311), 10 ng/mL recombinant human fibroblast growth factor 10 (hGFG-10; PeproTech, cat. 100-26), 1 ng/mL recombinant human fibroblast growth factor 2 (hFGF-2; PeproTech, cat. 100-18B), and 1 µM prostaglandin E2 (PGE2; Tocris, cat. 2296). The 227483-062-R1-J1-PDC line was cultured in Panc media, containing all 6E components except hFGF-2, with the addition of 500 nM SB-431542 (Selleckchem, cat. S1067) and 10 nM gastrin (Tocris, cat. 3006). […]
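Also: spheroids exposed to agents for 7 days.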
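For viability, T/C in this document: 100% = DMSO vehicle wells.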

With `CC(C)CC(NC(=O)C(Cc1ccccc1)NC(=O)c1cnccn1)B(O)O` (configuration not stated) + CN1CCN(c2cc(C(=O)Nc3cc4cc(-c5cnn(C)c5)ccc4cn3)ccn2)CC1 the IC50 (second compound 0.0316 µM) was 5.54 nM, the IC50 (second compound 0.1 µM) was 5.8 nM and the IC50 (second compound 0.316 µM) was less than 0.949 nM. For the same compound, the IC50 (second compound 1 µM) was less than 0.949 nM, the IC50 (second compound 3.16 µM) was less than 0.949 nM and the IC50 (second compound 10 µM) was less than 0.949 nM. It also gave a viability, T/C (second compound 0.0316 µM, first compound 0.000949 µM) of 105%, a viability, T/C (second compound 0.0316 µM, first compound 0.003 µM) of 107% and a viability, T/C (second compound 0.0316 µM, first compound 0.00949 µM) of 1.23%. For the same compound, the viability, T/C (second compound 0.0316 µM, first compound 0.03 µM) was 0.23%, the viability, T/C (second compound 0.0316 µM, first compound 0.0949 µM) was 0.16% and the viability, T/C (second compound 0.0316 µM, first compound 0.3 µM) was 1.94%. The viability, T/C (second compound 0.1 µM, first compound 0.000949 µM) was 121%, the viability, T/C (second compound 0.1 µM, first compound 0.003 µM) was 116% and the viability, T/C (second compound 0.1 µM, first compound 0.00949 µM) was 0.22%. For the same compound, the viability, T/C (second compound 0.1 µM, first compound 0.03 µM) was 0.19%, the viability, T/C (second compound 0.1 µM, first compound 0.0949 µM) was 0.18% and the viability, T/C (second compound 0.1 µM, first compound 0.3 µM) was 0.18%. The viability, T/C (second compound 0.316 µM, first compound 0.000949 µM) was 29.7%, the viability, T/C (second compound 0.316 µM, first compound 0.003 µM) was 4.76% and the viability, T/C (second compound 0.316 µM, first compound 0.00949 µM) was 0.19%. It also gave a viability, T/C (second compound 0.316 µM, first compound 0.03 µM) of 0.14%, a viability, T/C (second compound 0.316 µM, first compound 0.0949 µM) of 0.16% and a viability, T/C (second compound 0.316 µM, first compound 0.3 µM) of 0.13%. The viability, T/C (second compound 1 µM, first compound 0.000949 µM) was 0.15%, the viability, T/C (second compound 1 µM, first compound 0.003 µM) was 0.17% and the viability, T/C (second compound 1 µM, first compound 0.00949 µM) was 0.34%. For the same compound, the viability, T/C (second compound 1 µM, first compound 0.03 µM) was 0.1%, the viability, T/C (second compound 1 µM, first compound 0.0949 µM) was 0.1% and the viability, T/C (second compound 1 µM, first compound 0.3 µM) was 1.57%. The viability, T/C (second compound 3.16 µM, first compound 0.000949 µM) was 0.09%, the viability, T/C (second compound 3.16 µM, first compound 0.003 µM) was 0.13% and the viability, T/C (second compound 3.16 µM, first compound 0.00949 µM) was 0.12%. The viability, T/C (second compound 3.16 µM, first compound 0.03 µM) was 0.08%, the viability, T/C (second compound 3.16 µM, first compound 0.0949 µM) was 1.71% and the viability, T/C (second compound 3.16 µM, first compound 0.3 µM) was 0.13%. It also gave a viability, T/C (second compound 10 µM, first compound 0.000949 µM) of 0.08%, a viability, T/C (second compound 10 µM, first compound 0.003 µM) of 0.13% and a viability, T/C (second compound 10 µM, first compound 0.00949 µM) of 0.15%. It also gave a viability, T/C (second compound 10 µM, first compound 0.03 µM) of 0.11%, a viability, T/C (second compound 10 µM, first compound 0.0949 µM) of 2.22% and a viability, T/C (second compound 10 µM, first compound 0.3 µM) of 0.2%.

From PubChem BioAssay AID2060610 (Molecular Pharmacology Branch, DTP, NCI, 2025)
